Measured values taken from patent publication US20050209278A1, “Piperidinyl- and piperazinyl-sulfonylmethyl hydroxamic acids and their use as protease inhibitors” (priority 2002, published 2005).
Structures can show the parent of a compound that is named as a salt. Where two headings read alike, the source gives them in different places.

Assays:
[1] = tested on: solid tumor cancers (colorectal, pancreatic, ovarian, and prostate); settings: cited from earlier work
[2] = target: T1, MMP-13 (Homo sapiens, UniProt P45452); assay: MMP-13 inhibition (in vitro Ki); assay type: biochemical
T1 construct: made in house; host or cells: baculovirus / insect cells

[3] = target: T2, MMP-9 (Homo sapiens, UniProt P14780); assay: MMP-9 inhibition (in vitro Ki); assay type: biochemical
T2 construct: made in house; host or cells: MMP-9-transfected HT1080 cells (spent media)

[4] = target: T3, MMP-2 (Homo sapiens, UniProt P08253); assay: MMP-2 inhibition (in vitro Ki); assay type: biochemical
T3 construct: made in house; host or cells: MMP-2-transfected p2AHT2 cells
T3 sequence (P08253 110-660): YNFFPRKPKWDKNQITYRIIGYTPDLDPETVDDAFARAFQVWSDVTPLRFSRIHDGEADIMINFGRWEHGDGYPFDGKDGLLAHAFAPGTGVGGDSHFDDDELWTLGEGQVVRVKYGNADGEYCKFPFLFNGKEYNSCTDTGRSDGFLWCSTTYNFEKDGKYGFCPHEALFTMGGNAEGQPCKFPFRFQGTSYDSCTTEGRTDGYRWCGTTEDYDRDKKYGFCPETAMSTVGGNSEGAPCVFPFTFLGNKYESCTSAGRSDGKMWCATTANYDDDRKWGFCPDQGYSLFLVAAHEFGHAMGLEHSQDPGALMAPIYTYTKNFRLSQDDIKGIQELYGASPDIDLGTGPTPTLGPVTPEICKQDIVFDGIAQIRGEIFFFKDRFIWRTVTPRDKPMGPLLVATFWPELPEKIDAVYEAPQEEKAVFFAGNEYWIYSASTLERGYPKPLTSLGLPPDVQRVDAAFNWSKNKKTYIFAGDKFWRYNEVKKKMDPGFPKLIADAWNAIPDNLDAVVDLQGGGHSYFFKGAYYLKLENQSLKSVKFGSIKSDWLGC

[5] = target: T4, MMP-1 (Homo sapiens, UniProt P03956); assay: MMP-1 inhibition (in vitro Ki); assay type: biochemical
T4 construct: made in house; host or cells: MMP-1-transfected HT-1080 cells (spent media)
T4 sequence (P03956 100-469): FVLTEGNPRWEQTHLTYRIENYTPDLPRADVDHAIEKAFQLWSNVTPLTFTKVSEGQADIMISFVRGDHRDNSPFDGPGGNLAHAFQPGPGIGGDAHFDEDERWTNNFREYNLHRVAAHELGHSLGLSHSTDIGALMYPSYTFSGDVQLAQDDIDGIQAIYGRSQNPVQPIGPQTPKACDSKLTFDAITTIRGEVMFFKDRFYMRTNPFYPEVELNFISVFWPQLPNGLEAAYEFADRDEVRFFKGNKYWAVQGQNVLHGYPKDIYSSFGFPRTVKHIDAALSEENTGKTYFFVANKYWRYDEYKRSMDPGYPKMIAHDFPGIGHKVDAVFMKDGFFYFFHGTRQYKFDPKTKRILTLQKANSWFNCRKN

[6] = target: T5, MMP-14 (Homo sapiens, UniProt P50281); assay: MMP-14 inhibition (in vitro Ki); assay type: biochemical
T5 construct: The catalytic domain enzyme was expressed in E. coli inclusion bodies, solubilized in urea; made in house

[7] = Table 9, read-out: MMP-13 Ki (IC-50)
[8] = Table 9, read-out: MMP-9 Ki (IC-50)
[9] = Table 9, read-out: MMP-2 Ki (IC-50)
[10] = Table 9, read-out: MMP-1 Ki (IC-50)
[11] = Table 9, read-out: MMP-14 Ki (IC-50)

T2 sequence (P14780 107-707 limits assumed): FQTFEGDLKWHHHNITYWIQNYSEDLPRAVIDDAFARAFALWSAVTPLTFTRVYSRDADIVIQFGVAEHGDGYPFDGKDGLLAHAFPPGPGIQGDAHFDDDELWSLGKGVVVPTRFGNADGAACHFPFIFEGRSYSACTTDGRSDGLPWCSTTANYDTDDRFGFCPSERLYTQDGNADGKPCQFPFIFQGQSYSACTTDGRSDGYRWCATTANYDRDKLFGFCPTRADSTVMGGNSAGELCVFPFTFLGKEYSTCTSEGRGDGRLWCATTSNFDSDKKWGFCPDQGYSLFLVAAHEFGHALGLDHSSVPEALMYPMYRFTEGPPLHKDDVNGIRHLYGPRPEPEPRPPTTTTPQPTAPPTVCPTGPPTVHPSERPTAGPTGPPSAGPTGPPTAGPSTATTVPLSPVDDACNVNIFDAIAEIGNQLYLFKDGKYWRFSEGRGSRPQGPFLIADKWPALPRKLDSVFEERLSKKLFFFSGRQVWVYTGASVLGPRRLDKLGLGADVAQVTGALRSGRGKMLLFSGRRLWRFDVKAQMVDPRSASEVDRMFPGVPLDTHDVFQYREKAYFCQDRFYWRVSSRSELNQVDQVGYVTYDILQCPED

Row | SMILES | most common drug-related toxicity ([1]; clinical trials in patients) | effect on cancer-specific antigens used as surrogate markers for biological activity ([1]; patients with advanced, rapidly progressive, treatment-refractory solid tumor cancers) | Ki [2, 7] [nM] | Ki [3, 8] [nM] | Ki [4, 9] [nM] | Ki [5, 10] [nM] | Ki [6, 11] [nM] | Ki ([2]; Table 8, read-out: MMP-13 Ki) [nM] | Ki ([3]; Table 8, read-out: MMP-9 Ki) [nM] | Ki ([4]; Table 8, read-out: MMP-2 Ki) [nM] | Ki ([5]; Table 8, read-out: MMP-1 Ki) [nM] | Ki ([6]; Table 8, read-out: MMP-14 Ki) [nM]
1 | CNC(=O)[C@@H](NC(=O)[C@H](CC(C)C)[C@H](O)C(=O)NO)C(C)(C)C [Marimastat] | musculoskeletal pain and stiffness | dose-related reduction in the rise of cancer-specific antigens |  |  |  |  |  |  |  |  |  | 
2 | O=C(NO)C1(S(=O)(=O)N2CCC(c3ccc(OCC4CC4)cn3)CC2)CCOCC1 [Example A172] |  |  | 1.24 | 0.36 | 1.31 | 4070 | 3620 |  |  |  |  | 
3 | O=C(CO)N1CCC(C(=O)NO)(S(=O)(=O)N2CCC(c3ccc(CCC(F)(F)C(F)(F)F)cn3)CC2)CC1 [Example A118] |  |  | 0.18 | 0.4 | 0.56 | 6600 | 3600 |  |  |  |  | 
4 | O=C(/C=C/C=C/C1CCN(S(=O)(=O)C2(C(=O)NO)CCOCC2)CC1)N1C[C@H]2CCCC[C@H]2C1 [Example A81] |  |  | 0.92 | 274 | 213 | 4440 | > 10000 |  |  |  |  | 
5 | Cc1cnn(-c2ccc(C3CCN(S(=O)(=O)C4(C(=O)NO)CCOCC4)CC3)nc2)c1 [Example A193] |  |  | 2.09 | 8.24 | 4.7 | 4710 | 2820 |  |  |  |  | 
6 | O=C(CCCCN1CCN(S(=O)(=O)C2(C(=O)NO)CCOCC2)CC1)c1cccc(OC(F)(F)F)c1 [Example A140] |  |  | 12.5 | 814 | 390 | > 10000 | > 10000 |  |  |  |  | 
7 | O=C(NO)C1(S(=O)(=O)N2CCC(OCCCn3nnc(-c4ccc(OC(F)(F)F)cc4)n3)CC2)CCOCC1 [Example A153] |  |  | 0.37 | 1910 | 175 | > 10000 | > 10000 |  |  |  |  | 
8 | COCc1ccc(C2CCN(S(=O)(=O)C3(C(=O)NO)CCOCC3)CC2)nc1 [Example A177] |  |  | 6.81 | 0.88 | 3.83 | > 10000 | 3360 |  |  |  |  | 
9 | CCCCC=CCCOC1CCN(S(=O)(=O)C2(C(=O)NO)CCOCC2)CC1 [Example A36C] |  |  |  |  |  |  |  | 1.22 | 3.41 | 3.93 | > 10000 | 1900
10 | O=C(NO)C1(S(=O)(=O)N2CCC(c3ccc(C#CCc4ccccc4)cn3)CC2)CCOCC1 [Example A134] |  |  | 0.109 | 1.25 | 0.65 | 1250 | 191 |  |  |  |  | 
11 | Cc1ccc(N2CCC(C(=O)NO)(S(=O)(=O)N3CCC(c4ccc(CCC(F)(F)C(F)(F)F)cn4)CC3)CC2)cn1 [Example A131] |  |  | 0.34 | 0.57 | 1.2 | > 10000 | 1910 |  |  |  |  | 
12 | O=C(NO)C1(S(=O)(=O)N2CCC(CCCCc3nc(-c4ccc(OC(F)(F)F)cc4)no3)CC2)CCOCC1 [Example A64, N-hydroxy-4-{[4-(4-{3-[4-(trifluoromethoxy)phenyl]-1,2,4-oxadiazol-5-yl}butyl)piperidin-1-yl]sulfonyl}tetrahydro-2H-pyran-4-carboxamide] |  |  |  |  |  |  |  | 0.51 | 273 | 63.8 | 8880 | > 10000
13 | O=C(NO)C1(S(=O)(=O)N2CCC(c3ccc(OCC(F)(F)C(F)(F)F)cn3)CC2)CCOCC1 [Example A58, N-hydroxy-4-({4-[5-(2,2,3,3,3-pentafluoropropoxy)pyridin-2-yl]piperidin-1-yl}sulfonyl)tetrahydro-2H-pyran-4-carboxamide Hydrochloride] |  |  |  |  |  |  |  | 0.24 | 1.37 | 0.52 | 1550 | 6230
14 | CCCCCCCCOC1CCN(S(=O)(=O)C2(C(=O)NO)CCOCC2)CC1 [Example A36B] |  |  |  |  |  |  |  | 0.63 | 1.34 | 1.87 | > 10000 | 1080
15 | O=C(NO)C1(S(=O)(=O)N2CCC(c3ccc(OCC(F)(F)F)cn3)CC2)CCOCC1 [Example A57, N-hydroxy-4-({4-[5-(2,2,2-trifluoroethoxy)pyridin-2-yl]piperidin-1-yl}sulfonyl)tetrahydro-2H-pyran-4-carboxamide Hydrochloride] |  |  |  |  |  |  |  | 0.34 | 0.48 | 0.53 | 1570 | 2020
16 | O=C(NO)C1(S(=O)(=O)N2CCN(c3ccc(-c4nnn(CC5CC5)n4)cc3)CC2)CCOCC1 [Example A175] |  |  | 0.09 | 1.37 | 0.07 | 854 | 591 |  |  |  |  | 
17 | CNC(=O)CCCCC1CCN(S(=O)(=O)C2(C(=O)NO)CCOCC2)CC1 [Example A86] |  |  | 8.19 | 307 | 23.8 | 516 | 7540 |  |  |  |  | 
18 | O=C(NO)C1(S(=O)(=O)N2CCC(CCCCCCC(F)(F)C(F)(F)F)CC2)CCOCC1 [Example A51, 4-[4-(7,7,8,8,8-pentafluoro-octyl)-piperidine-1-sulfonyl]-tetrahydro-pyran-4-carboxylic Acid Hydroxyamide] |  |  |  |  |  |  |  | 0.27 | 1.01 | 0.27 | 5110 | 1260
19 | COCCCc1ccc(C2CCN(S(=O)(=O)C3(C(=O)NO)CCOCC3)CC2)nc1 [Example A166] |  |  | 1.03 | 1.77 | 1.93 | > 10000 | 5060 |  |  |  |  | 
20 | O=C(NO)C1(S(=O)(=O)N2CCC(c3ccc(/C=C/C(F)(F)C(F)(F)F)cn3)CC2)CCOCC1 [Example A116] |  |  | 0.08 | 0.14 | 0.19 | 1700 | 331 |  |  |  |  | 
21 | O=C(NO)C1(S(=O)(=O)N2CCC(c3ccc(CCC4CCCC4)cn3)CC2)CCOCC1 [Example A106] |  |  | 0.14 | 1.05 | 0.54 | 5460 | 1250 |  |  |  |  | 
22 | CN(C(=O)CCCCC1CCN(S(=O)(=O)C2(C(=O)NO)CCOCC2)CC1)c1ccccc1 [Example A94] |  |  | 1.18 | 823 | 197 | 2820 | > 10000 |  |  |  |  | 
